Test results reported in patent publication US7723066B1, “Processes for in vivo production of astaxanthin and phaffia rhodozyma yeast of enhanced astaxanthin content” (Igene Biotechnology, Inc., priority 1988, dated 2010).
Read-outs that look alike come from different tables or passages of the source.

How the values were obtained:
Assay type in all cases: cell-based, Phaffia rhodozyma
P. rhodozyma [1] = test: Morphological selection on agent-containing medium, colonies assayed for pigment
Excerpt: More specifically, the inventors have discovered that by subjecting a naturally occurring or mutated strain of P. rhodozyma to growth in the presence of a metabolic pathway inhibitor, particularly a main respiratory pathway inhibitor, in the presence of an influence such as an agent or environmental condition which triggers a secondary respiratory pathway, or morphological selection using a selecting agent, and particularly an antibiotic, a cytochrome B inhibitor, or a terpenoid synthetic pathway inhibitor as a selecting agent, a directed and specific selection of highly pigmented P. rhodazyma takes place. For example, plating of the pink yeast, P. rhodozyma, to agar containing an antibiotic, a cytochrome B inhibitor, or a terpenoid synthetic pathway inhibitor gave rise to colonies of unusual morphology characterized by a nonpigmented lower smooth surface that developed highly pigmented vertical papillae after 1 to 2 months.
The sequence of mutations and selections with which the highest astaxanthin yielding strains to date have been produced is shown in FIG. 2. With reference to FIG. 2, the naturally occurring parent 67-385, obtained from the American Type Culture Collection ATCC No. 24230, was assayed as containing 200-600 μg/g dry weight of yeast in 6 day growth. 67-385 was subjected to antimycin selection, and higher pigmented progeny, referred to as 10′-887J0 were obtained. The first mutant papillus dissected from the basal colony contained approx. 700 μg total carotenoid/g yeast compared to the parental strain which had 300 to 400 μg/g. 10′-887J0 was assayed to have an astaxanthin content of 960 μg/g dry weight of yeast in 6 day growth. 10′-887J0 was replated to YM agar containing 50 μM antimycin and second generation antimycin colonies were selected. One of these produced 1200 μg/g and another produced 1450 μg/g. […]
After harvest from 30 ml growth medium, the cells are washed in water and resuspended in 30 ml of water. The optical density is measured to determine growth. […]

P. rhodozyma [2] = tested on: P. rhodozyma
Excerpt: One of the selected progeny (IGI-887J0; see FIG. 2 and accompanying text) was characterized physiologically.
Sensitivities of the mutants to various respiratory inhibitors including antimycin A, theonyltrifluoroacetine, sodium azide, hydrogen peroxide and sodium cyanide were examined. These inhibitors affect different regions of the respiratory chain.

P. rhodozyma [3] = test: Inhibitors incorporated into yeast malt extract medium: killing, growth and colony colour; settings: for killing of P. rhodozyma: incorporated into yeast malt extract medium agar; for influence on pigmentation of P. rhodozyma: YM plates or liquid growth media
Excerpt: The inventors also tried treating P. rhodozyma with several inhibitors of electron transport including thenoyltrifluoroacetone (TTFA), antimycin A, and sodium cyanide.

P. rhodozyma [4] = test: as above; settings: nicotine 1 mM, imidazole 4 mM, 2-methylimidazole 1 mM, morpholine 10 mM

tunicamycin
pigment of resistant mutant (P. rhodozyma [1]; 8 μg/ml tunicamycin resistant mutant of ATCC 24202, control 270 μg/g): 610 µg/g

OO [hydrogen peroxide]
sensitivity of mutant compared with natural isolate (P. rhodozyma [2]): more sensitive to killing | sensitivity of the antimycin mutants compared with parental strain (P. rhodozyma [2]): quite sensitive

Clc1ccc(COC(Cn2ccnc2)c2ccc(Cl)cc2Cl)c(Cl)c1 (centres unmarked) [miconazole]
killing of P. rhodozyma (P. rhodozyma [3]): significant killing

[N-]=[N+]=[N-].[Na+] [azide, sodium azide]
killing of naturally occurring P. rhodozyma by inhibitors of electron transport (P. rhodozyma [3]): relatively insensitive | sensitivity of mutant compared with natural isolate (P. rhodozyma [2]): did not differ | sensitivity of the antimycin mutants compared with parental strain (P. rhodozyma [2]): did not differ in sensitivity

C[C@@H]1[C@H](O)[C@@H](C)/C=C/C=C/CC/C=C/C=C/C=C/C=C/C(O[C@H]2O[C@H](C)[C@@H](O)[C@H](N)[C@@H]2O)CC2O[C@](O)(CC(O)C(O)CCC(O)CC(O)CC(O)CC(=O)O[C@H]1C)CC(O)C2C(=O)O (some centres unmarked) [nystatin]
pigment of highest mutant (P. rhodozyma [1]; mutant of ATCC 24202 from 3 and 5 μg/ml nystatin, control 270 μg/g): 400 µg/g

Cc1ncc[nH]1 [2-methylimidazole]
color of the colonies (P. rhodozyma [4]): did visually change the color of the colonies | growth (P. rhodozyma [4]): did not impair growth

O=C(CC(=O)C(F)(F)F)c1cccs1 [TTFA, thenoyltrifluoroacetone]
influence on pigmentation of P. rhodozyma (P. rhodozyma [3]): do not seem to significantly influence pigmentation | killing of naturally occurring P. rhodozyma by inhibitors of electron transport (P. rhodozyma [3]; naturally occurring P. rhodozyma): substantially killed by low concentrations | sensitivity of the antimycin mutants compared with parental strain (P. rhodozyma [2]; antimycin-isolated mutants): quite sensitive | sensitivity of mutant compared with natural isolate (P. rhodozyma [2]; strain IGI-887J0): increased sensitivities

C[C@@]1(O)CCOC(=O)C1 [mevalonic acid lactone]
pigment of resistant mutant (P. rhodozyma [1]; 25 mM mevalonic acid lactone resistant mutant of NTG-mutagenized ATCC 24202, control 275 μg/g): 540 µg/g

C1COCCN1 [morpholine]
color of the colonies (P. rhodozyma [3]): did visually change the color of the colonies | growth (P. rhodozyma [3]): did not impair growth

c1c[nH]cn1 [imidazole]
color of the colonies (P. rhodozyma [3]): did visually change the color of the colonies | growth (P. rhodozyma [3]): did not impair growth

CC(=O)N1CCN(c2ccc(OCC3COC(Cn4ccnc4)(c4ccc(Cl)cc4Cl)O3)cc2)CC1 (centres unmarked) [ketoconazole]
killing of P. rhodozyma (P. rhodozyma [3]): significant killing

C=C(C)[C@H]1Cc2c(ccc3c2O[C@@H]2COc4cc(OC)c(OC)cc4[C@@H]2C3=O)O1 [rotenone]
influence on pigmentation of P. rhodozyma (P. rhodozyma [3]): do not seem to significantly influence pigmentation

CN1CCCC1c1cccnc1 (centres unmarked) [nicotine]
color of the colonies (P. rhodozyma [4]): did visually change the color of the colonies | growth (P. rhodozyma [4]): did not impair growth
